From patent publication US5447716A, “Process for lightening the skin or treating pigmental blemishes using a composition containing benzomorpholine or 3,4-dihydro-2H-1,4-benzoxazine derivatives” (L'Oreal, priority 1993, dated 1995)

What was measured:
fungal tyrosinase = test: in vitro inhibition test of the activity of tyrosinase (dopachrome formation at 475 nm); assay type: biochemical; details: inhibitor at 50 mol % with respect to tyrosine; L-dopa co-substrate; pH 6.5, 25° C.; lowering in maximum dopachrome (OD 475 nm at plateau) vs no inhibitor
Excerpt: Some of the compounds of general formula (I) have been studied in comparison with an equivalent molar amount of hydroquinone in the in vitro inhibition test of the activity of tyrosinase.
According to this test, the amount of dopachrome formed during the chain of reactions of conversion of tyrosine to melanins is monitored by visible spectrometry at 475 nm. These reactions are catalyzed in vitro by fungal tyrosinase, in the presence of a reducing co-substrate (for example, a small amount of L-dopa) in order to initiate the hydroxylation reaction of L-tyrosine to L-dopa, which is then catalytically oxidized to dopaquinone and then to dopachrome, an intermediate product before the non-enzymatic oxidation reactions which result in the formation of melanins.
The concentration of dopachrome formed with time in the presence and in the absence of the inhibitor is thus measured.
The inhibitor concentrations are set at 50 mol % with respect to the concentration of tyrosine in the reaction medium.
The inhibition effect is expressed by the lowering in the maximum amount of dopachrome formed (optical density value at 475 nm read at the plateau of the curve) with respect to the amount obtained in the absence of inhibitor.
A--0.1M Phosphate buffer, pH=6.5 (1% Tween 20)
B--2·10^-3 M Mother solution of L-tyrosine in A
C--10^-4 M Mother solution of L-dopa in A
D--Mother solution of fungal tyrosinase in A containing 2,400 units/ml
E--10^-2 M Mother solution of the inhibitor in A (Solutions C and D are to be prepared on the day)
reference cell: 3 ml of A
homogenize and equilibrate at 25° C.
mix rapidly and observe the kinetics by measuring the absorbance at 475 nm as a function of time.

melanocytes = details: in words, background; cited from earlier work
[1] = in words, background; cited from earlier work

Compound	% of inhibition (fungal tyrosinase) [%]	cytotoxicity for melanocytes (melanocytes)	irritation [1]
Oc1ccc2c(c1)NCCO2	-80	–	–
Oc1ccc2c(c1)OCCN2	-71	–	–
Oc1ccc(O)cc1 [hydroquinone]	-33	cytotoxic	particularly irritating
